Peptide text beside a SMILES is read from it.
Biological target: T1, fusion protein comprising the extracellular domain of RXFP1 and the transmembrane domain of CD8 (7BP cells) (Homo sapiens, UniProt Q9HBX9)
T1 construct: the extracellular domain of RXFP1 and the transmembrane domain of CD8; expressed in transfected cells
T1 sequence (Q9HBX9 1-409 limits assumed): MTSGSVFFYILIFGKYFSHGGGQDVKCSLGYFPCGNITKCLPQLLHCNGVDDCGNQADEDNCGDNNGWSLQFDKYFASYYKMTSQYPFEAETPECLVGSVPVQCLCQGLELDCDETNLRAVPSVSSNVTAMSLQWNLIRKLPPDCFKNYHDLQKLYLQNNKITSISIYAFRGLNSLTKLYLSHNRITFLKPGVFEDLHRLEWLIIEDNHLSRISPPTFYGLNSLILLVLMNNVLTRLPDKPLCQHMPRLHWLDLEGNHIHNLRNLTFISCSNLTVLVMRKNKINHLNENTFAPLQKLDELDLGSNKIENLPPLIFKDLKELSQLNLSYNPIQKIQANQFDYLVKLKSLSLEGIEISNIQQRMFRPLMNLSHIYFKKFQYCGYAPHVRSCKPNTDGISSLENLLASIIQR
Experiment: Eu-labelled H2 relaxin competition binding to 7BP cells
Details: 7BP cells

CC[C@H](C)[C@H](NC(=O)[C@H](C)NC(=O)[C@@H](NC(=O)[C@H](CCC(N)=O)NC(=O)[C@H](C)NC(=O)[C@H](CCCNC(=N)N)NC(=O)[C@@H](NC(=O)[C@H](CC(C)C)NC(=O)[C@H](CCC(=O)O)NC(=O)[C@H](CCCNC(=N)N)NC(=O)CNC(=O)[C@H](CO)NC(=O)[C@H](CC(C)C)NC(=O)[C@H](CCCCN)NC(=O)[C@@H](NC(=O)[C@@H](N)C(C)C)[C@@H](C)CC)C(C)C)[C@@H](C)CC)C(=O)N[C@@H](CO)C(=O)NCC(=O)N[C@@H](CCSC)C(=O)N[C@@H](CO)C(=O)N[C@H](C(=O)N[C@@H](Cc1c[nH]c2ccccc12)C(=O)N[C@@H](CO)C(=O)N[C@@H](CCCCN)C(=O)N[C@@H](CCCNC(=N)N)C(=O)N[C@@H](CO)C(=O)N[C@@H](CC(C)C)C(N)=O)[C@@H](C)O [B7-33 C11.23S] (H-VIKLSGRELVRAQIAISGMSTWSKRSL-NH2)
Ki (competition with Eu-labelled H2 relaxin, n ≥ 3, read-out: 7BP Eu-H2 pKi (converted)): 22.4 nM | Binding to 7BP cells (in words) (lower affinity than H2 relaxin, FIG. 2B): strongly bind to 7BP cells

— US10081662B2, “Modified relaxin B chain peptides” (The Florey Institute of Neuroscience and Mental Health, priority 2014, dated 2018)
